Experimental findings from patent publication US20200338125A1, “METHOD FOR EXPANSION OF LYMPHOCYTES” (LUDWIG INSTITUTE FOR CANCER RESEARCH LTD, priority 2017, published 2020) are described below.

The assay concerns TILs of patient CTE-0009. As to the kind of experiment: IFNγ-ELISPOT of TILs from draining lymph nodes, patient CTE-0009. In kind it is cell-based, human. Conditions: FIG. 5; day 14; conventional and primed cultures from draining lymph nodes. The method, then: Both “conventional” and “primed” TILs of patient CTE-0009 were generated from a single cell suspension of draining lymph nodes, following the methods described herein. Each culture was interrogated at day 14 by IFNγ-ELISPOT for the presence of neo-antigen T cell reactivities directed against one of the 4 predicted peptides and against the corresponding wild-type (wt) peptides. […] PHA was used at 1 μg/ml.
T cell reactivity against predicted neo-antigens was tested by IFNγ ELISpot on pre-REP TILs. Positivity was confirmed in ≥2 independent experiments.

Turning to TPINPRRCL [wt], the “neo-antigen T cell reactivities directed against the peptide” value is reported as “not”.
